Test results: patent US12391698B2, “Substituted piperidines and piperazines and methods for the treatment of CNS disorders” (SUVEN LIFE SCIENCES LIMITED, priority 2022, dated 2025)
Structures can show the parent of a compound that is named as a salt. Where two headings read alike, the source gives them in different places.

How the values were obtained:
[1] = Rodent pharmacokinetic study; assay type: in vivo, Male Wistar rats; details: rat, plasma, mean ± S.D, n = 3; for bioavailability: oral 3 mg/kg vs intravenous 1 mg/kg, read-out: F (Bioavailability)
Protocol: Male Wistar rats (260±50 g) were used as experimental animals. Animals were housed individually in polypropylene cage. Two days prior to study, male Wistar rats were anesthetized with isoflurane for surgical placement of jugular vein catheter. Rats were randomly divided for oral (3 mg/kg) and intravenous (1 mg/kg) dosing (n=3/group) and fasted overnight before oral dosing (p.o.). However, food and water were provided ad libitum to the rats allocated for intravenous dosing.
At pre-determined time points, blood samples were collected through jugular vein and replenished with an equivalent volume of normal saline. Collected blood was transferred into a labeled eppendorf tube containing 10 μL of heparin as an anticoagulant. Typically blood samples were collected at 0.08, 0.25, 0.5, 1, 2, 4, 6, 8, and 24 h post dose. Blood samples were centrifuged at 4000 rpm for 10 min. Plasma was separated and stored frozen at −80° C. until analysis. The concentrations of the test compounds were quantified in plasma by qualified LC-MS/MS method using suitable extraction technique. The test compounds were quantified in the calibration range around 1-1000 ng/mL in plasma. Study samples were analyzed using calibration samples in the batch and quality control samples spread across the batch.
Pharmacokinetic parameters Cmax, AUCt, t1/2. Clearance and Bioavailability (F) were calculated using standard non-compartmental model by using Phoenix WinNonlin 6.0.4 version software package.

[2] = molecular target: T1, cloned human 5-HT2A receptor (Homo sapiens, UniProt P28223); assay: Determination of Ki at 5-HT2A receptor (radioligand binding, [3H]-Ketanserine); details: CHO-K1 recombinant cells; [3H]-Ketanserine 1.25 nM; read-out: Ki h5-HT2A
T1 construct: expressed in transfected cells; host or cells: CHO-K1
T1 sequence (P28223 whole entry): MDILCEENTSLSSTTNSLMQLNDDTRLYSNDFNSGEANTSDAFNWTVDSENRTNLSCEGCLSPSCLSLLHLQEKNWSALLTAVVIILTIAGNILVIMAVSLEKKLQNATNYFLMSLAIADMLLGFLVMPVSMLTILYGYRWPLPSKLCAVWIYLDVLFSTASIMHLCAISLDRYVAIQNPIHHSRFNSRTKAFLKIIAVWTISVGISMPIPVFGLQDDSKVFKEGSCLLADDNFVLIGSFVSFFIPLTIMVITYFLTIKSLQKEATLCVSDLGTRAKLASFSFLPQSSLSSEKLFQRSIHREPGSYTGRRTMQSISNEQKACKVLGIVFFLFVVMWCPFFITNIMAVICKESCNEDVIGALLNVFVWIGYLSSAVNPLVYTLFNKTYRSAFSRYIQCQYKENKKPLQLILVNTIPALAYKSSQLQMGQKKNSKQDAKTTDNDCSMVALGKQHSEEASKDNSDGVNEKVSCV
Protocol: (§1) Compounds were tested according to the following procedure.
• Receptor source: Recombinant mammalian cells (CHO-K1) • Radioligand: [^3H]-Ketanserine (41.9 Ci/mmol) • Final ligand concentration: 1.25 nM • Non-specific determinant: 0.1 mM 1-Napthyl piperazine (1-NP) • Reference compound: 1-Napthyl piperazine (1-NP) • Positive control: 1-Napthyl piperazine (1-NP) Incubation Conditions:
(§2) Reactions were carried out in buffer with pH 7.4 containing 50 mM Tris-HCl, 4 mM CaCl2), 0.1% Ascorbic acid for 1 h at r.t. The reaction was terminated by rapid vacuum filtration onto the glass fiber filters. Radioactivity trapped onto the filters was determined and compared to the control values in order to ascertain any interactions of the test compound(s) with cloned human 5-HT2A receptor binding site.

[3] = Rodent brain penetration study; assay type: in vivo; details: rat, brain/plasma, po, fed male Wistar rats, 3 mg/kg p.o., mean ± S.D, n = 3, read-out: Rat Brain Penetration (Cbrain/Cplasma) at 3 mg/kg, p.o. @ 1 h
Protocol: Male Wistar rats (260±40 g) were used as experimental animals. Three animals were housed in each cage. Animals were given water and food ad libitum throughout the experiment and maintained on a 12 h light/dark cycle.
Brain penetration was determined in discrete manner in rats. One day prior to dosing, male Wistar rats were acclimatized and randomly grouped according to their body weight. At each time point (0.50, 1 and 2 h), n=3 animals were used.
The test compounds were suitably preformulated and administered orally at (free base equivalent) 3 mg/kg. Blood samples were removed via cardiac puncture under isoflurane anesthesia. The animals were sacrificed to collect brain tissue. Plasma was separated and brain samples were homogenized. Plasma and brain homogenates were stored frozen at −20° C. until analysis. The concentrations of the test compounds in plasma and brain were determined using LC-MS/MS method.
The test compounds were quantified in plasma and brain homogenate by qualified LC-MS/MS method using suitable extraction technique in the calibration range of 1-500 ng/mL. Study samples were analyzed using calibration samples in the batch and quality control samples spread across the batch. Extent of brain-plasma ratio (Cbrain/Cplasma) was calculated.

[4] = molecular target: cloned human SERT receptor (Homo sapiens, UniProt P31645); assay: Determination of Ki at SERT receptor (SPA binding, [3H]-Citalopram); details: HEK293 recombinant cells, [3H]-Citalopram 2 nM, read-out: Ki hSERT
Sequence of cloned human SERT receptor (P31645 whole entry): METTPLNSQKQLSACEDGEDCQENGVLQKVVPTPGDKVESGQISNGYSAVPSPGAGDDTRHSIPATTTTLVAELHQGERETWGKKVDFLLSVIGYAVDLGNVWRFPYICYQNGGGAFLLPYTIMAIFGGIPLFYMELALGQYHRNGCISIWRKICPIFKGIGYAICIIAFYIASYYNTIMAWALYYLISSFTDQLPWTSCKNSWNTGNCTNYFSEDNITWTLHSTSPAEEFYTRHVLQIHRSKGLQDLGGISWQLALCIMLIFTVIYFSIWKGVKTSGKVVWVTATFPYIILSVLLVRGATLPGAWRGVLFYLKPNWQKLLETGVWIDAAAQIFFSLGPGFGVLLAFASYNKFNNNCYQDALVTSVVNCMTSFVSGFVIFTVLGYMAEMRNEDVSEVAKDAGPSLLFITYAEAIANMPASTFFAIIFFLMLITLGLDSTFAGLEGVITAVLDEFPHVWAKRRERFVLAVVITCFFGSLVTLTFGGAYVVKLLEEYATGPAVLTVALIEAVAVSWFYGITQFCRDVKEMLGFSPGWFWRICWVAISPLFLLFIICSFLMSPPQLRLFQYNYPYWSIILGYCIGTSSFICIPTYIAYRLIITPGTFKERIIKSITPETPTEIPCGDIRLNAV
Protocol: as §1
• Receptor source: Recombinant mammalian cells (HEK293) • Radioligand: [^3H]-Citalopram (80.8 Ci/mmol) • Final ligand concentration: 2 nM • Non-specific determinant: 0.1 mM Venlafaxine • Reference compound: Venlafaxine • Positive control: Venlafaxine Incubation Conditions:
Reactions were carried out in buffer with pH 7.4 containing 50 mM Tris-HCl, 150 mM NaCl, 5 mM KCl and scintillation proximity assay (SPA) beads (0.1 mg/well) for 3 h at r.t. Radioactivity proximal to SPA beads was determined by scintillation proximity assay and compared to the control values in order to ascertain any interactions of the test compound(s) with cloned human SERT receptor binding site.
Reference: Journal of Pharmacology and Experimental Therapeutics, 1987, 242 (1), 364-371.

[5] = molecular target: T2, cloned human 5-HT1A receptor (Homo sapiens, UniProt P08908); assay: Determination of Ki at 5-HT1A receptor (radioligand binding, [3H]-8-Hydroxy DPAT); details: HEK293-EBNA recombinant cells; [3H]-8-Hydroxy DPAT 0.8 nM; read-out: Ki h5-HT1A
T2 construct: expressed in transfected cells; host or cells: HEK293-EBNA
T2 sequence (P08908 1-422): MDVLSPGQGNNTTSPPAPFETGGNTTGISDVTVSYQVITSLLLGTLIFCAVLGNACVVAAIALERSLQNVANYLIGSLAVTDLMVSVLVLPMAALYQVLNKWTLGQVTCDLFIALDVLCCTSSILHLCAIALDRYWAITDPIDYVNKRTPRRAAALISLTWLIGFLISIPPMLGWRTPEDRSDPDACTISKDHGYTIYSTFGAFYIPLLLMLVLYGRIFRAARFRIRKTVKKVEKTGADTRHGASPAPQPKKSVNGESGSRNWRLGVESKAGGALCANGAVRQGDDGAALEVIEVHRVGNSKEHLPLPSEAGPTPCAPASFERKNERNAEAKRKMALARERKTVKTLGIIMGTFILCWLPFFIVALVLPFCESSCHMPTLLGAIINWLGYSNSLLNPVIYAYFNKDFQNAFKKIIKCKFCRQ
Protocol: as §1
• Receptor source: Recombinant mammalian cells (HEK293-EBNA) • Radioligand: [^3H]-8-Hydroxy DPAT (200 Ci/mmol) • Final ligand concentration: 0.8 nM • Non-specific determinant: 0.1 mM U92016A • Reference compound: U92016A • Positive control: U92016A Incubation Conditions:
as §2, with “Tris-HCl, 0.5” for “Tris-HCl, 4”, “mM EDTA, 10 mM MgSO4,” for “mM CaCl2),”, “for 2” for “for 1”, “human 5-HT1A” for “human 5-HT2A”

[6] = molecular target: T3, hD2S (cloned human dopamine D2S receptor) (Homo sapiens, UniProt P14416); assay: Determination of Ki at D2S receptor (radioligand binding, [3H]-Raclopride); details: CHO-K1 recombinant cells; [3H]-Raclopride 4 nM; read-out: Ki hD2S
T3 construct: expressed in transfected cells; host or cells: CHO-K1
T3 sequence (P14416 1-414 isoform P14416-2): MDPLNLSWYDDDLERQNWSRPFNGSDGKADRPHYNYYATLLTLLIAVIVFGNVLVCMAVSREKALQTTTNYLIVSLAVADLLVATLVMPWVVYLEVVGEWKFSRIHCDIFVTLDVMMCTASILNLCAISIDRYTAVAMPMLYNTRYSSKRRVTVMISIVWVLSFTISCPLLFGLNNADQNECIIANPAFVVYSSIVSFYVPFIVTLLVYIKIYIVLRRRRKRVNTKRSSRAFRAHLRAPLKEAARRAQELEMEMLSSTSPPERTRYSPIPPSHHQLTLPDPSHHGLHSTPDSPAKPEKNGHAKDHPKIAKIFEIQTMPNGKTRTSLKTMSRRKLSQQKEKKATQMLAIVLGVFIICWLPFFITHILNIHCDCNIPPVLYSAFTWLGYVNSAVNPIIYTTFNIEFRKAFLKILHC
Protocol: as §1
• Receptor source: Recombinant mammalian cells (CHO-K1) • Radioligand: [^3H]-Raclopride (80.8 Ci/mmol) • Final ligand concentration: 4 nM • Non-specific determinant: 0.1 mM Haloperidol • Reference compound: Haloperidol • Positive control: Haloperidol Incubation Conditions:
as §2, with “Tris-HCl, 120” for “Tris-HCl, 4”, “mM NaCl, 5 mM KCl, 5 mM MgCl2, 1 mM EDTA” for “mM CaCl2), 0.1% Ascorbic acid”, “for 2” for “for 1”, “human dopamine […]” for “human 5-HT2A”

[7] = molecular target: T4, recombinant rat 5-HT7 receptor (Rattus norvegicus, UniProt P32305); assay: Determination of Kb at 5-HT7 receptor, pCRE-Luc reporter gene assay in CHO cells; assay type: cell-based
T4 construct: expressed in transfected cells
T4 sequence (P32305 whole entry): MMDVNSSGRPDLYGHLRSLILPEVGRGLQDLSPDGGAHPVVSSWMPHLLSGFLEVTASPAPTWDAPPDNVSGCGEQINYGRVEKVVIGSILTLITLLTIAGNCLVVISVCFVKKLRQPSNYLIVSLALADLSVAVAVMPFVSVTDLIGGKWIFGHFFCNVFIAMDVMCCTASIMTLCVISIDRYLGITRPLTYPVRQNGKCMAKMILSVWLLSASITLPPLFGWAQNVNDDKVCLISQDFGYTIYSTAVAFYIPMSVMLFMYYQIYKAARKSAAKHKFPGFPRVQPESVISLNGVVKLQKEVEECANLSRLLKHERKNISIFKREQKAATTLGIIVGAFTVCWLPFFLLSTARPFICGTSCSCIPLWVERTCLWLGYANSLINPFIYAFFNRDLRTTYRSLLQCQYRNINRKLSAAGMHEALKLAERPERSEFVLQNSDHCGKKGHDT

[8] = molecular target: T4, recombinant rat 5-HT7 receptor; assay: as above; assay type: cell-based; remark: listed apart in the source
Protocol: A stable CHO cell line expressing recombinant rat 5-HT7 receptor and pCRE-Luc reporter system was used for cell-based assay. The assay offers a non-radioactive based approach to determine binding of a compound to GPCRs. In this specific assay, the level of intracellular cAMP which is modulated by activation or inhibition of the receptor is measured. The recombinant cells harbor luciferase reporter gene under the control of cAMP response element.
The above cells were grown in 96 well clear bottom white plates in Hams F12 medium containing 10% fetal bovine serum (FBS). Prior to the addition of compounds or standard agonist, cells were serum starved overnight. Increasing concentrations of test compound were added along with 1 μM of serotonin in Opti-MEM medium to the cells. The incubation was continued at 37° C. in CO2 incubator for 4 hours. Medium was removed and cells were washed with phosphate buffered saline. The cells were lysed and luciferase activity was measured in a Luminometer. Luminescence units were plotted against the compound concentrations using GraphPad Prism software. EC50 values of the compounds were defined as the concentration required in reducing the luciferase activity by 50%. The Kb values were calculated by feeding the concentration of agonist used in the assay and its EC50 value in the same software.

dopamine receptor = assay: Reserpine-induced dihydroxyphenylalanine (DOPA) accumulation assay in rat striatum; assay type: in vivo; details: apomorphine 0.1 mg/kg, s.c., rat, reserpine 5.0 mg/kg
Protocol: Reserpine (5.0 mg/kg, s.c.) was injected, after which rats were fasted for 18 h before sacrifice. […] Each rat was sacrificed and the striatum was dissected out of the whole brain on ice. Each striatum was weighed and homogenized individually in buffer containing 0.01 N hydrochloric acid and 0.2 mg/ml L-cysteine. Supernatants were subjected for quantification of DOPA using HPLC coupled to electrochemical detector.

[9] = intravenous (bolus) 1 mg/kg, male Wistar rats
[10] = oral (gavage) 3 mg/kg, fasted male Wistar rats

| Compound | AUC(0-t) [1, 9] | clearance [1, 9] | half-life [1, 9] | bioavailability ([1]; male Wistar rats) | AUC(0-t) [1, 10] | Cmax [1, 10] | half-life [1, 10] | Ki [2] | Kp at 1 h [3] | Ki ([4]; cells printed in μM) | Ki [5] | Ki [6] | Ki [4] | agonist activity at rat recombinant 5-HT7 receptor [7] | antagonistic activity at rat recombinant 5-HT7 receptor ([8]; pCRE-Luc reporter gene assay) | Kb ([8]; rat receptor, with 1 μM serotonin, luciferase readout, read-out: Kb at 5-HT7 receptor) | change in reserpine-induced DOPA accumulation in striatum (dopamine receptor) |
| --- | --- | --- | --- | --- | --- | --- | --- | --- | --- | --- | --- | --- | --- | --- | --- | --- | --- |
| O=C1C[C@@H]2CCCN2C(=O)N1CCCCN1CCC(c2noc3cc(F)ccc23)CC1 [Example 5, 2-{4-[4-(6-Fluoro-benzo[d]isoxazol-3-yl)-piperidin-1-yl]-butyl}-tetrahydro-pyrrolo[1,2-c]pyrimidine-1,3-dione] | 226 ± 11 ng·h/mL | 74 ± 3.4 mL/min/kg | 30 ± 6 min | 22 ± 9% | 151 ± 61 ng·h/mL | 152 ± 44 ng/mL | 42 ± 6 min | 0.7 nM | 1.06 ± 0.46 | > 10 µM | 14.7 nM | 7.3 nM | – | – | – | – | – |
| O=C1C[C@@H]2COCCN2C(=O)N1CCCCN1CCN(c2nsc3ccccc23)CC1 [Example 18, 7-[4-(4-Benzo[d]isothiazol-3-yl-piperazin-1-yl)-butyl]-tetrahydro-pyrimido[6,1-c][1,4]oxazine-6,8-dione oxalate] | – | – | – | – | – | – | – | 4.2 nM | – | – | 0.8 nM | 6.5 nM | 1.74 µM | no detectable agonist activity | antagonistic activity | 1 nM | – |
| O=C1C[C@H]2CCCN2C(=O)N1C[C@H]1CCCC[C@H]1CN1CCC(c2noc3cc(F)ccc23)CC1 [Example 29, 2-{2-[4-(6-Fluoro-benzo[d]isoxazol-3-yl)-piperidin-1-ylmethyl]-cyclohexylmethyl}-tetrahydro-pyrrolo[1,2-c]pyrimidine-1,3-dione oxalate] | 291 ± 17 ng·h/mL | 57 ± 3 mL/min/kg | 60 ± 6 min | 4.6 ± 2% | 40 ± 15 ng·h/mL | 37 ± 14 ng/mL | 54 ± 6 min | 0.8 nM | 2.73 ± 0.23 | > 10 µM | 10 nM | 0.2 nM | – | – | – | – | – |
| CN1CCc2cccc3c2[C@H]1Cc1ccc(O)c(O)c1-3 [apomorphine, reference compound] | – | – | – | – | – | – | – | – | – | – | – | – | – | – | – | – | significant decrease |
| O=C(OCc1ccccc1)N1CCN2C(=O)N(CCCCN3CCN(c4nsc5ccccc45)CC3)C(=O)C[C@@H]2C1 [Example 20, 7-[4-(4-Benzo[d]isothiazol-3-yl-piperazin-1-yl)-butyl]-6,8-dioxo-octahydro-pyrazino[1,2-c]pyrimidine-2-carboxylic acid benzyl ester fumarate] | – | – | – | – | – | – | – | 1.1 nM | – | – | 1.3 nM | 2.7 nM | 0.148 µM | – | – | – | – |
| COc1ccc2[nH]cc(C3CCN(CCCCN4C(=O)C[C@@H]5CCCCN5C4=O)CC3)c2c1 [Example 16, 2-{4-[4-(5-Methoxy-1H-indol-3-yl)-piperidin-1-yl]-butyl}-hexahydro-pyrido[1,2-c]pyrimidine-1,3-dione] | – | – | – | – | – | – | – | 1210 nM | – | – | 0.6 nM | 59.1 nM | 0.427 µM | – | – | – | – |
| O=C1C[C@@H]2CCCN2C(=O)N1CCCN1CCN(c2nsc3ccccc23)CC1 [Example 23, 2-[3-(4-benzo[d]isothiazol-3-yl-piperazin-1-yl)-propyl]tetrahydro-pyrrolo[1,2-c]pyrimidine-1,3-dione] | – | – | – | – | – | – | – | 5.3 nM | – | – | 21.4 nM | 22.3 nM | 0.918 µM | – | – | – | – |
